Test results: patent US20140086901A1, “Inhibition of Post-Radiation Tumor Growth” (The Board of Trustees of the Leland Stanford Junior …, priority 2008, published 2014)
Where two headings read alike, the source gives them in different places.

Experiments:
[1] = Body weight monitoring during drug treatment to assess side effects; settings: for loss in body weight during treatment: mice
glioblastoma tumors = test: Intracranial glioblastoma tumor growth with or without irradiation (bioluminescence imaging); format: in vivo, mouse
Experimental: Tumor growth was analyzed by using an IVIS in vivo imaging system (Caliper Life Sciences, Hopkinton, Mass.) to monitor the bioluminescence imaging of brain tumor.
AMD3100 (Sigma-Aldrich) was prepared in sterile saline.
After tumor inoculation on brain, carragenan treatment was done every five days.

[2] = tested on: CD45+CD11b+ and CD45+F4/80+ cells; test: Immunostaining of brain samples for BM-derived myelomonocytic cells in glioblastoma tumors; format: in vivo, mouse; settings: irradiation plus drug; harvested 18 days after irradiation
Excerpt: Primary antibodies for immunofluorescent staining included a rat monoclonal CD31/PECAM-1 (MEC13.3; BD Pharmingen, San Diego, Calif.), a rabbit polyclonal GFP antibody (Invitrogen, Eugene, Oreg.), a rabbit polyclonal MMP-9 (Abeam, Cambridge, Mass.), a biotinylated CD11b/macrophage-associated antigen-1α (M1/70; BD Pharmingen), a biotinylated CD11c (HL3; BD Pharmingen), a biotinylated Gr-1/Ly-6C (RB6-8C5; BD Pharmingen), rat monoclonal F4/80 (A3-1, Gnetex, Irvine, Calif.), and CD45 (BD Pharmingen). Anti phosphorylated CXCR-4 polyclonal antibody was obtained from Dr. J B Rubbin at Washington University.
Unless otherwise indicated, […] frozen sections of tumors were dried in air, hydrated with PBS, blocked with 5% goat serum in PBS (containing 0.03% Triton X-100) for 30 min, and incubated with primary antibodies for 2 hr at room temperature (RT). Sections were washed three times in PBS, followed by secondary antibody for 1 hr at RT. For glioblastomas, 5 μm frozen sections of tumors were dried in air, hydrated with PBS, blocked with 5% goat serum in PBS (containing 0.03% Triton X-100) for 30 min, and incubated with primary antibodies over night at 4° C. Sections were washed three times in PBS, followed by secondary antibody for 40 min at room temperature. […]

[3] = mouse, in vivo
MT1A2 tumors = test: MT1A2 tumor growth on pre-irradiated tissues of BM-transplanted mice; settings: 100 μg/kg intraperitoneally once per day for up to 6 weeks

With `c1cc(CN2CCCNCCNCCCNCC2)ccc1CN1CCCNCCNCCCNCC1` [AMD3100] the “loss in body weight during treatment” value [1] was “did not show any significant loss in the weight”, the “growth of irradiated tumors” value (glioblastoma tumors; early tumor model, 2 Gy five times from day 11, drug for three weeks) was “significantly inhibited” and the “growth of irradiated tumors” value (glioblastoma tumors; late tumor model, 15 Gy on day 21, drug for three weeks) was “significantly inhibited”.

In the case of `N#Cc1ccc(/C=C/C(=O)O)cc1` [NSC-134754], the “loss in body weight during treatment” value [1] is reported as “did not show any significant loss in the weight”, the “CD45+CD11b+ cells in glioblastoma tumors” value [2] is reported as “absence” and the “CD45+F4/80+ cells in glioblastoma tumors” value [2] is reported as “absence”. The post-irradiation tumor growth (glioblastoma tumors; irradiation on day 20 plus drug daily for three weeks) was “decreased post-irradiation tumor growth”.

In the case of carrageenan, the “loss in body weight during treatment” value [3] is reported as “did not show any significant loss in the weight” and the “growth of irradiated tumors” value (glioblastoma tumors; treated 1, 3 and 7 days prior to implantation, then every five days, 15 Gy on day 26) is reported as “significantly inhibited”.

With `O=P(O)(O)C(O)(Cn1ccnc1)P(=O)(O)O` [ZA, aminobisphosphonate zolendronic acid] the “loss in weight during treatment” value ([1]; treated every day) was “less than 10 % of body weight”, the “tumor growth on the irradiated site” value (MT1A2 tumors; MMP-9 KO+WT BM mice) was “significant inhibition of tumor growth” and the “tumor growth on pre-irradiated tissues” value (MT1A2 tumors; WT+KO BM mice) was “no effect on tumor growth”.
